Read-outs that look alike come from different tables or passages of the source. Each block holds one molecule with its values, some of them ahead of it. Ends that are not written are not given here.
What was measured:
[1] = tested on: SUM149PT cells overexpressing the EN1 cDNA (SUM149PT-EN1); test: Cell Titer Glo cell viability assay in SUM149PT cells overexpressing the EN1 cDNA; type: cell-based, human; settings: Homo sapiens
Procedure: (§1) In the neural system it has been proposed that EN1 protects neurons from mitochondrial complex I insults. Likewise, the inventors investigated whether EN1 could play a similar role in the basal-like breast cancer cell lines. The EN1 cDNA was overexpressed in SUM149PT cells using a lentiviral vector, and the transduced cells were treated with increasing concentrations of rotenone, a mitochondrial complex I toxin, and taxol, a […].
(§2) Plasmids expressing the EN1 cDNA (Genecopoeia, vector EX-T1021-Lv07) or EN1 shRNAs (Open Biosystems, pLKO-EN1) were transfected with Gagpol-, VSVG-, and RSV-REV-coding plasmids in HEK 293T cells using Lipofectamine and Plus Reagent cationic lipids (Invitrogen, Carlsbad, Calif.) and transduction of breast cells was performed as described in Beltran, A. S. et al. Breast Cancer Res 13, R94 (2011).
(§3) All peptides were synthetized at the UNC High-Throughput Peptide Synthesis and Array Facility at UNC. Taxol, Rotenone and Halofuginone (Sigma-Aldrich, St Louis, Mo.) were dissolved in DMSO. A total of […] or 1×10^3 breast cells for peptide and drug treatment respectively, were seeded in 96-well plates. Cells were exposed for 8 hours to the peptide and 48 to 72 hours for drug treatment. The cell viability after peptide/drug treatment was assayed with the Cell Titer Glo (CTG) assay (Promega, Madison, Wis., USA).

SUM149PT cells = test: cells; type: cell-based, human; settings: for activity / IC50 as compared with the wt iPep624: Cell Titer Glo
Text: The EN1-iPeps and iPep controls were first tested in SUM149PT cells carrying high EN1 expression. Cells were first treated with a full-length 29-mer peptide (iPep624) comprising the N-terminal, less conserved amino acid sequences, the hexamotif, and the C-terminal tail. As a control, the inventors generated the iPep624ΔHEX in which the hexamotif was mutated from the wild type (wt) WPAWVY (SEQ ID NO: 13) to the GAAGAG (SEQ ID NO: 15) sequence. These mutations were expected to dramatically abolish the activity of the peptide. Both peptides were included in the culture medium of the basal cancer cells in increasing (0-100 μM) concentrations and incubated for 8 hours at 37° C. Treated cells were first analyzed using the Cell Titer Glo assay, which monitors metabolic viability. […] This calculated value of IC50 is in the range of concentrations observed with other peptides delivered with CPPs.
as §3

[2] = tested on: SUM149PT control (EGFP) transduced cells (SUM149PT-Control); test: Cell Titer Glo cell viability assay in control transduced SUM149PT cells; type: cell-based; settings: Homo sapiens
Procedure: as §1, §2, §3

[3] = tested on: panel of breast cancer cell lines; test: Cell Titer Glo cell viability assay, whole panel of breast cancer cell lines; type: cell-based; settings: maximum tested concentrations (100 μM), 8 hours
Procedure: To test the specificity of the EN1-iPep in cell lines expressing EN1, the inventors delivered the iPeps into a panel of breast cancer cell lines expressing different amounts of EN1.
as §3

[4] = SUM149PT, drug treatment 72 hours, read-out: IC50 (cell viability), EN1 cDNA transduced cells
[5] = Homo sapiens, SUM149PT, 48 hours drug and 8 hours 500 nM iPep682, read-out: IC50 of drug with iPep682
[6] = Homo sapiens, SUM149PT, 48 hours of treatment, read-out: IC50 of drug alone
[7] = SUM149PT, drug treatment 72 hours, read-out: IC50 (cell viability), control transduced cells

IC50 (SUM149PT cells; [5]): 0.049 µM
IC50 (SUM149PT cells; [6]): 7.6 µM
Molecule: CC(=O)O[C@H]1C(=O)[C@@]2(C)[C@H]([C@H](OC(=O)c3ccccc3)[C@]3(O)C[C@H](OC(=O)[C@H](O)[C@@H](NC(=O)c4ccccc4)c4ccccc4)C(C)=C1C3(C)C)[C@]1(OC(C)=O)CO[C@@H]1C[C@@H]2O [taxol, reference compound]
IC50 [1, 4]: 47.8 µM
IC50 [2, 7]: 7240 nM

IC50 (SUM149PT cells; 8 h): 12.5 µM
Molecule: KKKRKVPLVWPAWVYCTRYSDRPS [iPep682]

Molecule: KKKRKVTDSQQPLVAPAWVYCTRYSDRPS (SEQ ID NO: 20) (engineered from homo sapiens) [iPep624W1ΔA, first tryptophan mutated to alanine]
activity / IC50 as compared with the wt iPep624 (SUM149PT cells; SUM149PT): retained activity but significantly increased the IC50

IC50 (SUM149PT cells; [5]): 29.5 µM
IC50 (SUM149PT cells; [6]): 610 µM
Molecule: O=c1[nH]cc(F)c(=O)[nH]1 [5-FU, 5-Fluorouracil, reference compound]

Molecule: KKKRKVTDSQQPLVGAAGAGCTRYSDRPS (SEQ ID NO: 18) (engineered from homo sapiens) [iPep624ΔHEX]
cell viability (SUM149PT cells; SUM149PT, 0-100 μM peptide, 8 hours): did not show significant changes in cell viability
cell viability of any of the breast cancer cell lines [3]: did not significantly affect cell viability

Molecule: KKKRKVWPAWVYCTRYSDR (SEQ ID NO: 22) (homo sapiens) [iPep697, peptide lacking all the N-terminal residues upstream of the hexamotif]
activity / IC50 as compared with the wt iPep624 (SUM149PT cells; SUM149PT): less active

Molecule: C=C(C)[C@H]1Cc2c(ccc3c2O[C@@H]2COc4cc(OC)c(OC)cc4[C@@H]2C3=O)O1 [rotenone]
IC50 [1, 4]: 19.6 µM
IC50 [2, 7]: 1080 nM

Molecule: O=C(CC1NCCCC1O)Cn1cnc2cc(Br)c(Cl)cc2c1=O (centres unmarked) [halofuginone]
IC50 ([1]; SUM149PT-EN1 cells, 500 nM iPep, 48 hours, read-out: IC50 of halofuginone in combination with iPep624): 0.00049 µM
breast cancer cell death (SUM149PT cells; SUM149PT, single agent): induced very potent breast cancer cell death
IC50 ([2]; SUM149PT-Control cells, 500 nM iPep, 48 hours, read-out: IC50 of halofuginone in combination with iPep624): 0.041 nM

Molecule: KKKRKVTDSQQPLVWPAAVYCTRYSDRPS (SEQ ID NO: 19) (engineered from homo sapiens) [iPep624W2ΔA, second tryptophan mutated to alanine]
activity / IC50 as compared with the wt iPep624 (SUM149PT cells; SUM149PT): retained activity but significantly increased the IC50

Reference: patent US10201610B2, “Interference peptides and use thereof” (The University of Western Australia, priority 2014, dated 2019)
